Measured values taken from patent publication US6737383B1, “Herbicidal oxadiazolidines” (priority 1999, dated 2004).

How the values were obtained:
corn = assay: Test C postemergence corn; assay type: in vivo, Zea mays; details: 0 to 100 scale, 0 no effect, 100 complete control
Procedure, shortened: (§1)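 Postemergence spray; formulation = non-phytotoxic solvent + surfactant; soil 60:40 sandy loam:greenhouse potting mix; greenhouse, ~14–21 d; visual rating vs untreated, 0–100 (100 = complete control).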

purple nutsedge = assay: Test C postemergence purple nutsedge; assay type: in vivo, Cyperus rotundus; details: 0 to 100 scale, 0 no effect, 100 complete control
Procedure: (§2) Compounds evaluated in this test were formulated in a non-phytotoxic solvent mixture which included a surfactant and applied to plants that were grown for various periods of time before treatment (postemergence application). A mixture of sandy loam soil and greenhouse potting mix in a 60:40 ratio was used for the postemergence test.
(§3) Plantings of these crops and weed species were adjusted to produce plants of appropriate size for the postemergence test. All plant species were grown using normal greenhouse practices. Crop and weed species include arrowleaf sida (Sida rhombifolia), barnyardgrass (Echinochloa crus-galli), cocklebur (Xanthium strumarium), common ragweed (Ambrosia elatior), corn (Zea mays), cotton (Gossypium hirsutum), eastern black nightshade (Solanum ptycanthum), fall panicum (Panicum dichotomiflorum), field bindweed (Convolvulus arvensis), giant foxtail (Setaria faberii), hairy beggarticks (Bidens pilosa), ivyleaf morningglory (Ipomoea hederacea), johnsongrass (Sorghum halepense), ladysthumb smartweed (Polygonum persicaria), lambsquarters (Chenopodium album), large crabgrass (Digitaria sanguinalis), purple nutsedge (Cyperus rotundus), redroot pigweed (Amaranthus retroflexus), soybean (Glycine max), surinam grass (Brachiaria decumbens), velvetleaf (Abutilon theophrasti) and wild poinsettia (Euphorbia heterophylla).
(§4) Treated plants and untreated controls were maintained in a greenhouse for approximately 14, to 21 days, after which all treated plants were compared to untreated controls and visually evaluated. Plant response ratings, summarized in Table C, were based upon a 0 to 100 scale where 0 was no effect and 100 was complete control. A dash response (−) means no test result.

soybean = assay: Test C postemergence soybean; assay type: in vivo, Glycine max; details: 0 to 100 scale, 0 no effect, 100 complete control
Procedure: as §2, §3, §4

velvetleaf = assay: Test C postemergence velvetleaf; assay type: in vivo, Abutilon theophrasti; details: 0 to 100 scale, 0 no effect, 100 complete control
Procedure: as §2, §3, §4

wild poinsettia = assay: Test C postemergence wild poinsettia; assay type: in vivo, Euphorbia heterophylla; details: 0 to 100 scale, 0 no effect, 100 complete control
Procedure, shortened: as §1

jointed goatgrass = assay: Test E jointed goatgrass; assay type: in vivo, Aegilops cylindrica; details: Postemergence
Procedure, shortened: (§5)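 Postemergence: spray at 1–4 leaf stage, soil 60:40 sandy loam:potting mix; solvent + surfactant formulation; greenhouse 21–28 d; visual injury vs untreated controls.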

lambsquarters = assay: Test E lambsquarters; assay type: in vivo, Chenopodium album; details: Postemergence
Procedure: Compounds evaluated in this test were formulated in a non-phytotoxic solvent mixture which included a surfactant and applied to plants that were in the 1- to 4-leaf stage (postemergence application). A mixture of sandy loam soil and greenhouse potting mix in a 60:40 ratio was used for the postemergence test.
(§6) Plantings of these crops and weed species were adjusted to produce plants of appropriate size for the postemergence test. All plant species were grown using normal greenhouse practices. Crop and weed species include annual bluegrass (Poa annua), blackgrass (Alopecurus myosuroides), black nightshade (Solanum nigra), chickweed (Stellaria media), common poppy (Papaver rhoeas), deadnettle (Lamium amplexicaule), downy brome (Bromus tectorum), field violet (Viola arvensis), galium (Galium aparine), green foxtail (Setaria viridis), Italian ryegrass (Lolium multiflorum), jointed goatgrass (Aegilops cylindrica), kochia (Kochia scoparia), lambsquarters (Chenopodium album), littleseed canarygrass (Phalaris minor), rape (Brassica napus), redroot pigweed (Amaranthus retroflexus), Russian thistle (Salsola kali), scentless chamomile (Matricaria inodora), spring barley (Hordeum vulgare), sugar beet (Beta vulgaris), sunflower (Helianthus annuus), ivyleaf speedwell (Veronica hederaefolia), spring wheat (Triticum aestivum), winter wheat (Triticum aestivum), wild buckwheat (Polygonum convolvulus), wild mustard (Sinapis arvensis), wild oat (Avena fatua), windgrass (Apera spica-venti) and winter barley (Hordeum vulgare).
(§7) Treated plants and untreated controls were maintained in a greenhouse for approximately 21 to 28 days, after which all treated plants were compared to untreated controls and visually evaluated. […] A dash response (-) means no test result.

sunflower = assay: Test E sunflower; assay type: in vivo, Helianthus annuus; details: Postemergence
Procedure, shortened: as §5

wild mustard [1] = assay: Test E wild mustard; assay type: in vivo, Sinapis arvensis; details: Postemergence
Procedure: […] A mixture of sandy loam soil and greenhouse potting mix in a 60:40 ratio was used for the postemergence test.
as §6, §7

black nightshade = assay: Test E black nightshade; assay type: in vivo, Solanum nigra; details: Preemergence
spring wheat = assay: Test E spring wheat; assay type: in vivo, Triticum aestivum; details: Preemergence
wild mustard [2] = assay: Test E wild mustard; assay type: in vivo, Sinapis arvensis; details: Preemergence
Alexandergrass = assay: Test D Alexandergrass; assay type: in vivo, Brachiaria plantaginea; details: Rate 64 g/ha, Postemergence; 0 to 100 scale, 0 no injury, 100 complete control
large crabgrass = assay: Test D large crabgrass; assay type: in vivo, Digitaria sanguinalis; details: Rate 64 g/ha, Postemergence; 0 to 100 scale, 0 no injury, 100 complete control
surinam grass = assay: Test D surinam grass; assay type: in vivo, Brachiaria decumbens; details: Rate 64 g/ha, Postemergence; 0 to 100 scale, 0 no injury, 100 complete control
[3] = Rate 250 g/ha, 0 to 100 scale (0 no effect, 100 complete control)
[4] = Rate 62 g/ha, 0 to 100 scale, 0 no effect, 100 complete control
[5] = Rate 125 g/ha, 0 to 100 scale (0 no effect, 100 complete control)

CC(C)N(C(=O)n1oc(=O)n(Cc2cccs2)c1=O)c1ccc(F)cc1 [Compound 80]
Plant response rating, Corn (corn; Rate 140 g/ha): 0 | Plant response rating, Corn (corn; Rate 280 g/ha): 0 | Plant response rating, Corn (corn; Rate 560 g/ha): 0 | Plant response rating, Corn (corn; Rate 1120 g/ha): 0 | Plant response rating, Purple nutsedge (purple nutsedge; Rate 140 g/ha): 0 | Plant response rating, Purple nutsedge (purple nutsedge; Rate 280 g/ha): 0 | Plant response rating, Purple nutsedge (purple nutsedge; Rate 560 g/ha): 0 | Plant response rating, Purple nutsedge (purple nutsedge; Rate 1120 g/ha): 0 | Plant response rating, Soybean (soybean; Rate 140 g/ha): 5 | Plant response rating, Soybean (soybean; Rate 280 g/ha): 20 | Plant response rating, Soybean (soybean; Rate 560 g/ha): 60 | Plant response rating, Velvetleaf (velvetleaf; Rate 140 g/ha): 5 | Plant response rating, Velvetleaf (velvetleaf; Rate 280 g/ha): 5 | Plant response rating, Velvetleaf (velvetleaf; Rate 560 g/ha): 20 | Plant response rating, Velvetleaf (velvetleaf; Rate 1120 g/ha): 20 | Plant response rating Wild poinsettia (wild poinsettia; Rate 140 g/ha): 0 | Plant response rating Wild poinsettia (wild poinsettia; Rate 280 g/ha): 0 | Plant response rating Wild poinsettia (wild poinsettia; Rate 560 g/ha): 5 | Plant response rating Wild poinsettia (wild poinsettia; Rate 1120 g/ha): 5

C=CCn1c(=O)on(C(=O)N(c2ccccc2)C(C)C)c1=O [Compound 93]
Plant response rating, Corn (corn; Rate 140 g/ha): 0 | Plant response rating, Corn (corn; Rate 280 g/ha): 0 | Plant response rating, Corn (corn; Rate 560 g/ha): 0 | Plant response rating, Corn (corn; Rate 1120 g/ha): 45 | Plant response rating, Purple nutsedge (purple nutsedge; Rate 140 g/ha): 0 | Plant response rating, Purple nutsedge (purple nutsedge; Rate 280 g/ha): 0 | Plant response rating, Purple nutsedge (purple nutsedge; Rate 560 g/ha): 0 | Plant response rating, Purple nutsedge (purple nutsedge; Rate 1120 g/ha): 10 | Plant response rating, Soybean (soybean; Rate 140 g/ha): 40 | Plant response rating, Soybean (soybean; Rate 280 g/ha): 60 | Plant response rating, Soybean (soybean; Rate 560 g/ha): 80 | Plant response rating, Soybean (soybean; Rate 1120 g/ha): 85 | Plant response rating, Velvetleaf (velvetleaf; Rate 140 g/ha): 0 | Plant response rating, Velvetleaf (velvetleaf; Rate 280 g/ha): 5 | Plant response rating, Velvetleaf (velvetleaf; Rate 560 g/ha): 40 | Plant response rating, Velvetleaf (velvetleaf; Rate 1120 g/ha): 70 | Plant response rating Wild poinsettia (wild poinsettia; Rate 140 g/ha): 0 | Plant response rating Wild poinsettia (wild poinsettia; Rate 280 g/ha): 0 | Plant response rating Wild poinsettia (wild poinsettia; Rate 560 g/ha): 30 | Plant response rating Wild poinsettia (wild poinsettia; Rate 1120 g/ha): 70 | Plant response rating, Jointed goatgra (jointed goatgrass; Rate 62 g/ha, 0 to 100 scale): 0 | Plant response rating, Jointed goatgra (jointed goatgrass; Rate 125 g/ha, 0 to 100 scale): 0 | Plant response rating, Jointed goatgra (jointed goatgrass; [3]): 0 | Plant response rating, Lambsquarters (lambsquarters; Rate 62 g/ha, 0 to 100 scale): 0 | Plant response rating, Lambsquarters (lambsquarters; Rate 125 g/ha, 0 to 100 scale): 0 | Plant response rating, Lambsquarters (lambsquarters; [3]): 0 | Plant response rating, Sunflower (sunflower; Rate 62 g/ha, 0 to 100 scale): 0 | Plant response rating, Sunflower (sunflower; Rate 125 g/ha, 0 to 100 scale): 0 | Plant response rating, Sunflower (sunflower; [3]): 0 | Plant response rating, Wild mustard (wild mustard [1]; Rate 62 g/ha, 0 to 100 scale): 0 | Plant response rating, Wild mustard (wild mustard [1]; Rate 125 g/ha, 0 to 100 scale): 0 | Plant response rating, Wild mustard (wild mustard [1]; [3]): 10 | Plant response rating, Blk nightshade (black nightshade; [4]): 60 | Plant response rating, Blk nightshade (black nightshade; [5]): 65 | Plant response rating, Blk nightshade (black nightshade; Rate 250 g/ha, 0 to 100 scale): 80 | Plant response rating, Spring Wheat (spring wheat; [4]): 30 | Plant response rating, Spring Wheat (spring wheat; [5]): 50 | Plant response rating, Spring Wheat (spring wheat; Rate 250 g/ha, 0 to 100 scale): 80 | Plant response rating, Wild mustard (wild mustard [2]; [4]): 30 | Plant response rating, Wild mustard (wild mustard [2]; [5]): 65 | Plant response rating, Wild mustard (wild mustard [2]; Rate 250 g/ha, 0 to 100 scale): 80

CC(C)N(C(=O)n1oc(=O)n(Cc2cccs2)c1=O)c1ccccc1 [Compound 103]
Plant response rating, Corn (corn; Rate 140 g/ha): 0 | Plant response rating, Corn (corn; Rate 280 g/ha): 0 | Plant response rating, Corn (corn; Rate 560 g/ha): 0 | Plant response rating, Corn (corn; Rate 1120 g/ha): 0 | Plant response rating, Purple nutsedge (purple nutsedge; Rate 140 g/ha): 0 | Plant response rating, Purple nutsedge (purple nutsedge; Rate 280 g/ha): 0 | Plant response rating, Purple nutsedge (purple nutsedge; Rate 560 g/ha): 0 | Plant response rating, Purple nutsedge (purple nutsedge; Rate 1120 g/ha): 0 | Plant response rating, Soybean (soybean; Rate 140 g/ha): 30 | Plant response rating, Soybean (soybean; Rate 280 g/ha): 30 | Plant response rating, Soybean (soybean; Rate 560 g/ha): 35 | Plant response rating, Soybean (soybean; Rate 1120 g/ha): 35 | Plant response rating, Velvetleaf (velvetleaf; Rate 140 g/ha): 0 | Plant response rating, Velvetleaf (velvetleaf; Rate 280 g/ha): 5 | Plant response rating, Velvetleaf (velvetleaf; Rate 560 g/ha): 10 | Plant response rating, Velvetleaf (velvetleaf; Rate 1120 g/ha): 45 | Plant response rating Wild poinsettia (wild poinsettia; Rate 140 g/ha): 0 | Plant response rating Wild poinsettia (wild poinsettia; Rate 280 g/ha): 0 | Plant response rating Wild poinsettia (wild poinsettia; Rate 560 g/ha): 10 | Plant response rating Wild poinsettia (wild poinsettia; Rate 1120 g/ha): 60

CCn1c(=O)on(C(=O)N(c2ccc(Cl)cc2)C(C)C)c1=O [Compound 108]
Plant response rating, Jointed goatgra (jointed goatgrass; Rate 62 g/ha, 0 to 100 scale): 10 | Plant response rating, Jointed goatgra (jointed goatgrass; Rate 125 g/ha, 0 to 100 scale): 10 | Plant response rating, Jointed goatgra (jointed goatgrass; [3]): 10 | Plant response rating, Lambsquarters (lambsquarters; Rate 62 g/ha, 0 to 100 scale): 10 | Plant response rating, Lambsquarters (lambsquarters; Rate 125 g/ha, 0 to 100 scale): 20 | Plant response rating, Lambsquarters (lambsquarters; [3]): 20 | Plant response rating, Sunflower (sunflower; Rate 62 g/ha, 0 to 100 scale): 20 | Plant response rating, Sunflower (sunflower; Rate 125 g/ha, 0 to 100 scale): 30 | Plant response rating, Sunflower (sunflower; [3]): 35 | Plant response rating, Wild mustard (wild mustard [1]; Rate 62 g/ha, 0 to 100 scale): 5 | Plant response rating, Wild mustard (wild mustard [1]; Rate 125 g/ha, 0 to 100 scale): 10 | Plant response rating, Wild mustard (wild mustard [1]; [3]): 80 | Plant response rating, Blk nightshade (black nightshade; [4]): 50 | Plant response rating, Blk nightshade (black nightshade; [5]): 85 | Plant response rating, Blk nightshade (black nightshade; Rate 250 g/ha, 0 to 100 scale): 90 | Plant response rating, Spring Wheat (spring wheat; [4]): 10 | Plant response rating, Spring Wheat (spring wheat; [5]): 20 | Plant response rating, Spring Wheat (spring wheat; Rate 250 g/ha, 0 to 100 scale): 30 | Plant response rating, Wild mustard (wild mustard [2]; [4]): 50 | Plant response rating, Wild mustard (wild mustard [2]; [5]): 90 | Plant response rating, Wild mustard (wild mustard [2]; Rate 250 g/ha, 0 to 100 scale): 65

CC(C)Cn1c(=O)on(C(=O)N(c2ccc(F)cc2)C(C)C)c1=O [Compound 169]
Plant response rating, Alexandergrass (Alexandergrass): 65 | Plant response rating, Large crabgrass (large crabgrass): 100 | Surinam grass plant response rating (surinam grass): 65
